ChEMBL document CHEMBL4020779, “Thio-functionalized carbohydrate thiosemicarbazones and evaluation of their anticancer activity” (Bioorg Med Chem Lett, 2017)
The source made the active and inactive calls. No cut-off for these calls is given here.

Assays:
A2780 [1] = assay: Cytotoxicity against human A2780 cells after 72 hrs by CCK8 assay; type: functional, cell-based; details: A2780, 72 h
HeLa [2] = assay: Cytotoxicity against human HeLa cells after 72 hrs by CCK8 assay; type: functional, cell-based
LoVo [3] = assay: Cytotoxicity against human LoVo cells after 72 hrs by CCK8 assay; type: functional, cell-based
MCF7 [4] = assay: Cytotoxicity against human MCF7 cells after 72 hrs by CCK8 assay; type: functional, cell-based; details: MCF7, 72 h
M059J [5] = assay: Cytotoxicity against human M059J cells after 72 hrs by CCK8 assay; type: functional, cell-based
A2780 [6] = assay: Genotoxicity in human A2780 cells assessed as induction of DNA damage at 500 uM after 1 hr under alkaline condition by comet assay relative to control; type: functional
HeLa [7] = assay: Genotoxicity in human HeLa cells assessed as induction of DNA damage at 500 uM after 1 hr under alkaline condition by comet assay relative to control; type: functional
LoVo [8] = assay: Genotoxicity in human LoVo cells assessed as induction of DNA damage at 500 uM after 1 hr under alkaline condition by comet assay relative to control; type: functional
MCF7 [9] = assay: Genotoxicity in human MCF7 cells assessed as induction of DNA damage at 500 uM after 1 hr under alkaline condition by comet assay relative to control; type: functional
M059J [10] = assay: Genotoxicity in human M059J cells assessed as induction of DNA damage at 500 uM after 1 hr under alkaline condition by comet assay relative to control; type: functional
A2780 [11] = assay: Induction of DNA fragmentation in human A2780 cells assessed as viable cells at 0.115 uM after 24 hrs by BrdU/FITC staining-based TUNEL assay (reference value: 96.1%); type: functional; details: A2780, 24 h, read-out: Activity
A2780 [12] = assay: Induction of DNA fragmentation in human A2780 cells assessed as apoptotic cells at 0.115 uM after 24 hrs by BrdU/FITC staining-based TUNEL assay (reference value: 3.9%); type: functional
A2780 [13] = assay: Induction of DNA fragmentation in human A2780 cells assessed as viable cells at 460.6 uM after 24 hrs by BrdU/FITC staining-based TUNEL assay (reference value: 96.1%); type: functional; details: A2780, 24 h, read-out: Activity
A2780 [14] = assay: Induction of DNA fragmentation in human A2780 cells assessed as apoptotic cells at 460.6 uM after 24 hrs by BrdU/FITC staining-based TUNEL assay (reference value: 3.9%); type: functional
LoVo [15] = assay: Induction of DNA fragmentation in human LoVo cells assessed as viable cells at 0.115 uM after 24 hrs by BrdU/FITC staining-based TUNEL assay (reference value: 99.2%); type: functional; details: read-out: Activity
LoVo [16] = assay: Induction of DNA fragmentation in human LoVo cells assessed as apoptotic cells at 0.115 uM after 24 hrs by BrdU/FITC staining-based TUNEL assay (reference value: 0.8%); type: functional
LoVo [17] = assay: Induction of DNA fragmentation in human LoVo cells assessed as viable cells at 460.6 uM after 24 hrs by BrdU/FITC staining-based TUNEL assay (reference value: 99.2%); type: functional; details: read-out: Activity
LoVo [18] = assay: Induction of DNA fragmentation in human LoVo cells assessed as apoptotic cells at 460.6 uM after 24 hrs by BrdU/FITC staining-based TUNEL assay (reference value: 0.8%); type: functional
A2780 [19] = assay: Induction of oxidative stress in human A2780 cells assessed as increase in ROS level in cytoplasm at IC20 after 1 hr by H2DCF-DA probe based fluorescence assay; type: functional, cell-based
A2780 [20] = assay: Induction of oxidative stress in human A2780 cells assessed as increase in ROS level in cytoplasm at IC50 after 1 hr by H2DCF-DA probe based fluorescence assay; type: functional, cell-based
A2780 [21] = assay: Induction of apoptosis in human A2780 cells assessed as viable cells at 0.115 uM after 24 hrs by Annexin-V-FITC/propidium iodide staining-based flow cytometric analysis (reference value: 93.9%); type: functional; details: A2780, 24 h, read-out: Activity
A2780 [22] = assay: Induction of apoptosis in human A2780 cells assessed as apoptotic cells at 0.115 uM after 24 hrs by Annexin-V-FITC/propidium iodide staining-based flow cytometric analysis (reference value: 2%); type: functional
A2780 [23] = assay: Induction of apoptosis in human A2780 cells assessed as necrotic cells at 0.115 uM after 24 hrs by Annexin-V-FITC/propidium iodide staining-based flow cytometric analysis (reference value: 4.1%); type: functional
A2780 [24] = assay: Induction of apoptosis in human A2780 cells assessed as viable cells at 460.6 uM after 24 hrs by Annexin-V-FITC/propidium iodide staining-based flow cytometric analysis (reference value: 93.9%); type: functional; details: A2780, 24 h, read-out: Activity
A2780 [25] = assay: Induction of apoptosis in human A2780 cells assessed as apoptotic cells at 460.6 uM after 24 hrs by Annexin-V-FITC/propidium iodide staining-based flow cytometric analysis (reference value: 2%); type: functional
A2780 [26] = assay: Induction of apoptosis in human A2780 cells assessed as necrotic cells at 460.6 uM after 24 hrs by Annexin-V-FITC/propidium iodide staining-based flow cytometric analysis (reference value: 4.1%); type: functional
LoVo [27] = assay: Induction of apoptosis in human LoVo cells assessed as viable cells at 0.106 uM after 24 hrs by Annexin-V-FITC/propidium iodide staining-based flow cytometric analysis (reference value: 89.7%); type: functional; details: read-out: Activity
LoVo [28] = assay: Induction of apoptosis in human LoVo cells assessed as apoptotic cells at 0.106 uM after 24 hrs by Annexin-V-FITC/propidium iodide staining-based flow cytometric analysis (reference value: 7.9%); type: functional
LoVo [29] = assay: Induction of apoptosis in human LoVo cells assessed as necrotic cells at 0.106 uM after 24 hrs by Annexin-V-FITC/propidium iodide staining-based flow cytometric analysis (reference value: 2.9%); type: functional
LoVo [30] = assay: Induction of apoptosis in human LoVo cells assessed as viable cells at 426 uM after 24 hrs by Annexin-V-FITC/propidium iodide staining-based flow cytometric analysis (reference value: 89.7%); type: functional; details: read-out: Activity
LoVo [31] = assay: Induction of apoptosis in human LoVo cells assessed as apoptotic cells at 426 uM after 24 hrs by Annexin-V-FITC/propidium iodide staining-based flow cytometric analysis (reference value: 7.9%); type: functional
LoVo [32] = assay: Induction of apoptosis in human LoVo cells assessed as necrotic cells at 426 uM after 24 hrs by Annexin-V-FITC/propidium iodide staining-based flow cytometric analysis (reference value: 2.9%); type: functional

`CC(=O)OC[C@H]1O[C@@H](O[C@H]2[C@H](OC(C)=O)[C@@H](OC(C)=O)[C@H](S[C@@H]3CC(=O)[C@@H]4OC[C@H]3O4)O[C@@H]2COC(C)=O)[C@H](OC(C)=O)[C@@H](OC(C)=O)[C@H]1OC(C)=O` was tested, and the IC20 (A2780 [1]) was 0.115 µM, the IC50 (A2780 [1]) was 461 µM and the IC50 (HeLa [2]) was 875 µM. For the same molecule, the IC20 (LoVo [3]) was 106 µM, the IC50 (LoVo [3]) was 426 µM and the IC50 (MCF7 [4]) was 913 µM. For the same molecule, the IC50 (M059J [5]) was 827 µM, the Activity (A2780 [6]) was under 10% and the Activity (HeLa [7]) was under 10%. For the same molecule, the Activity (LoVo [8]) was 10 - 20%, the Activity (MCF7 [9]) was under 10% and the Activity (M059J [10]) was under 10%. For the same molecule, the viability at 0.115 µM (A2780 [11]) was 85.5%, the Activity (A2780 [12]) was 15.5% and the viability at 460.6 µM (A2780 [13]) was 59%. For the same molecule, the Activity (A2780 [14]) was 41%, the viability at 0.115 µM (LoVo [15]) was 96.7% and the Activity (LoVo [16]) was 6.3%. The viability at 460.6 µM (LoVo [17]) was 90.6%, the Activity (LoVo [18]) was 9.4% and the Activity (A2780 [19]) was “inactive”. For the same molecule, the Activity (A2780 [20]) was “inactive”, the viability at 0.115 µM (A2780 [21]) was 91.6% and the Activity (A2780 [22]) was 7%. For the same molecule, the Activity (A2780 [23]) was 1.4%, the viability at 460.6 µM (A2780 [24]) was 71.4% and the Activity (A2780 [25]) was 22.9%. The Activity (A2780 [26]) was 5.7%, the viability at 0.106 µM (LoVo [27]) was 82% and the Activity (LoVo [28]) was 12.5%. For the same molecule, the Activity (LoVo [29]) was 5.5%, the viability at 426 µM (LoVo [30]) was 71.2% and the Activity (LoVo [31]) was 16.3%. It also gave an Activity (LoVo [32]) of 12.6%.
